According to patent US20250002532A1, “A NOVEL PEPTIDE AND THE USE THEREOF” (Rudacure Corporation, priority 2023, published 2025):
“Also recorded” adds a separate entry of the source. Residues, ends and D or L forms follow the SMILES beside them. No end group written: not given here.

Assays:
[1] = test system: SNL pain model; experiment: SNL pain model, Von Frey test; settings: 2 mg/kg I.P.; one, three and seven hours after administration; FIG. 7
[2] = test system: CIPN pain model; experiment: CIPN (paclitaxel) pain model, Von Frey test; format: in vivo, SD rat; settings: one, three and seven hours after administration, FIG. 8
Procedure: • a. […] Preparation of positive control material: Prebabalin was homogeneously dissolved in a saline solution at a concentration of 30 mg/10 mL and used. • e.
• a. […] Chemotherapy induced peripheral neuropathy (CIPN) pain modeling
Paclitaxel was dissolved at 2 mg/10 ml in a solution prepared by mixing cremophor EL and absolute ethanol at a 1:1 ratio, and the resulting solution was administered intraperitoneally in the amount of 2 ml each. Chemotherapy-induced pain was induced by administering paclitaxel once a day at 24-hour intervals for 4 days. • c. Confirmation of pain induction
Drug administration and confirmation of analgesic efficacy
Statistical analysis processing

[3] = test system: pain caused by formalin; experiment: Formalin test (pain behavioral response); format: in vivo, ICR mouse; settings: 2nd phase (20 to 40 minutes), vs saline group, FIG. 4
Procedure: An in vivo test was performed with the peptides of SEQ ID NOS: 11 and 12.
• a. […] Preparation of positive control material: Pregabalin was homogeneously dissolved in a saline solution at a concentration of 3 mg/mL. • e.
• a. Saline solution, pregabalin, peptide of SEQ ID NO: 11, and peptide of SEQ ID NO: 12, the administered materials corresponding to each group, were administered in advance about one hour before formalin administration. • b. One hour after the test material administration to each group, 20 μL of 2% formalin was injected subcutaneously into the sole of the right foot. • c. After administering […] to each subject, the time at which pain behavioral responses (licking, biting, etc.) appeared was measured in the intervals of 0 to 5 minutes and 20 to 40 minutes. • d. Grooming in regions other than the region where formalin was administered was not counted. • e.
The formalin test is a method of evaluating the degree of pain by subcutaneously injecting formalin into the dorsum of the hind paw of a mouse and then observing the behavior that appears thereafter. The degree of pain is evaluated by the number of times or duration of flinching responses. […]

[4] = target: T1, hTRPV1 (Homo sapiens, UniProt Q8NER1); experiment: Calcium imaging (Fura-2AM) of capsaicin-induced Ca2+ influx in TRPV1 CHO-K1 cells; format: cell-based; settings: for TRPV1 inhibitory activity / inhibition rate (screening): screening of peptides; for inhibition at 0.001 µM: peptide at 1 nM; for inhibition at 0.005 µM: peptide at 5 nM; for inhibition at 0.1 µM: peptide at 100 nM; for influx of calcium into TRPV1 channel (ΔF/F): FIG. 1, peptide injected
T1 construct: expressed in transfected cells; the earlier reading calls it TRPV1 CHO-K1 cells
Procedure: The TRPV1 inhibitory effect of various short-length peptides, including the 49 peptides in Tables 5 and 6, was evaluated by the following method.
All reagents used in cell culture were sterilized products. The culture medium of the cell line is shown in Table 7 below, and the culture was performed in a cell incubator with under the culture conditions of […] and 37° C. In addition, when cryopreserved cells (stock) were thawed and used, they were subcultured two to three times before use in the test.
After removing the cell culture medium by suction, 10 ml DPBS was added to wash the cells, and then the DPBS was removed by suction. 2 ml 0.05% trypsin-EDTA was added, and then the cells were cultured in a cell incubator at 37° C. for three to five minutes. Through a microscope, detachment of the cells from the bottom surface of the culture dish was confirmed, and 8 ml of the cell culture medium including 10% FBS was added to inactivate the trypsin-EDTA. Cells in the culture dish were collected, pipetted, and transferred to a 15 ml tube.
Centrifugation was performed at 800 rpm for five minutes, and all the supernatant except the cell pellet was removed. Then, the cell culture medium was added, and the pellet was carefully loosened.
After measuring the number of cells with a hemocytometer, the cells were dispensed at 1×10^3 cells/10 μl/coverslip at the center of a 12 mm cover slip coated with poly-D-lysine.
A 35π petri dish containing the cover slip was stored in a cell incubator, and when the cells were attached to the cover slip after one to two hours, 2 ml of the cell culture medium was added and stored in the cell incubator again.
The sample was added to 200 ml distilled water (DW) and mixed according to the composition in Table 8 below.
The pH was adjusted to a range of 7.3 to 7.4 using 5 N NaOH, and then distilled water (DW) was added to adjust the final volume to 250 ml.
Capsaicin was dissolved in 100% ethanol to prepare a 10 mM stock. Capsaicin, a TRPV1 activating substance, was diluted in the extracellular solution to a concentration of 0.1-1 mM before using in the experiment.
The test material (peptide according to the present invention) was dissolved in a solvent and then diluted to an appropriate concentration in the extracellular solution before using in the experiment.
2 mM Fura-2AM was prepared by adding 24.95 ml of DMSO to 50 mg of Fura 2AM powder, which is used as a membrane-permeable fluorescent marker. After the experiment, the remaining Fura-2AM was stored at −20° C. for reuse and covered with silver foil to prevent exposure to light.
2 mM Fura-2AM was diluted 1/1000 in a cell culture medium without FBS and antibiotics to prepare 1 ml Fura-2AM (based on a 35π Petri dish) to a final concentration of […]. After removing the cell culture medium in the 35π Petri dish, the cells were washed once with 2 ml DPBS. 1 ml of the Fura-2AM solution prepared above was transferred to a 35π Petri dish, and the cells were cultured in a cell incubator for 40 min.
To operate calcium imaging equipment, an IRIS-9 camera was turned on and then a computer was powered on. To operate a perfusion system, a suction device was powered on, 20 to 30 ml of distilled water was added to each perfusion syringe, and suction was performed while allowing the distilled water to flow into the chamber (syringe wash).
The extracellular solution and test materials prepared in advance were placed in the syringes washed with distilled water, and smooth flow of the solutions from each syringe into the chamber was confirmed. At this time, clips were used to block all the lines except one syringe line to be checked. In other words, the flow of the solution through only a single syringe line without the clip was checked (When the solution flows through two or more lines, the solutions could have been mixed.).

[5] = test system: CCI pain model; experiment: CCI pain model, Von Frey test; settings: amount printed 1 mg/ml (0.1 mg/mL, 200 μL I.P.); two hours after administration; FIG. 6
[6] = test system: pain caused by capsaicin; experiment: Capsaicin test (pain behavioral response); format: in vivo, C57BL/6N mouse; settings: 0.5 mg/kg I.P. one hour before 0.01% capsaicin; 0 to 5 minutes; FIG. 5
Procedure: An in vivo test was performed with the peptides of SEQ ID NOS: 5, 6, 9, and 11.
• a. […] Preparation of positive control material: BCTC was homogeneously dissolved in a saline solution at a concentration of 3 mg/mL. • e.
• a. Preparation of test materials: The peptides of SEQ ID NOS: 5, 6, 9, and 11 were dissolved in a saline solution to prepare at a concentration of 0.05 mg/mL. • b.
• a. Saline solution, BCTC, and peptides of SEQ ID NOS: 5, 6, 9, and 11, the administered materials corresponding to each group, were administered in advance about one hour before capsaicin administration. • b. One hour after the test material administration to each group, 20 μL of 0.01% capsaicin was injected subcutaneously into the sole of the right foot. • c. After administering […] to each subject, the time at which pain behavioral responses (licking, biting, etc.) appeared was measured in the interval of 0 to 5 minutes. • d. Grooming in regions other than the region where capsaicin was administered was not counted. • e.
In a previous study, the pain inhibiting effect was confirmed through a formalin test. To confirm whether such pain inhibiting phenomenon is through TRPV1, the pain response pattern was investigated after subcutaneous injection of capsaicin, which is one of the TRPV1 activators.

[7] = CHO-K1, read-out: hTRPV1 activity inhibited compared to the control group

T1 sequence (Q8NER1 whole entry): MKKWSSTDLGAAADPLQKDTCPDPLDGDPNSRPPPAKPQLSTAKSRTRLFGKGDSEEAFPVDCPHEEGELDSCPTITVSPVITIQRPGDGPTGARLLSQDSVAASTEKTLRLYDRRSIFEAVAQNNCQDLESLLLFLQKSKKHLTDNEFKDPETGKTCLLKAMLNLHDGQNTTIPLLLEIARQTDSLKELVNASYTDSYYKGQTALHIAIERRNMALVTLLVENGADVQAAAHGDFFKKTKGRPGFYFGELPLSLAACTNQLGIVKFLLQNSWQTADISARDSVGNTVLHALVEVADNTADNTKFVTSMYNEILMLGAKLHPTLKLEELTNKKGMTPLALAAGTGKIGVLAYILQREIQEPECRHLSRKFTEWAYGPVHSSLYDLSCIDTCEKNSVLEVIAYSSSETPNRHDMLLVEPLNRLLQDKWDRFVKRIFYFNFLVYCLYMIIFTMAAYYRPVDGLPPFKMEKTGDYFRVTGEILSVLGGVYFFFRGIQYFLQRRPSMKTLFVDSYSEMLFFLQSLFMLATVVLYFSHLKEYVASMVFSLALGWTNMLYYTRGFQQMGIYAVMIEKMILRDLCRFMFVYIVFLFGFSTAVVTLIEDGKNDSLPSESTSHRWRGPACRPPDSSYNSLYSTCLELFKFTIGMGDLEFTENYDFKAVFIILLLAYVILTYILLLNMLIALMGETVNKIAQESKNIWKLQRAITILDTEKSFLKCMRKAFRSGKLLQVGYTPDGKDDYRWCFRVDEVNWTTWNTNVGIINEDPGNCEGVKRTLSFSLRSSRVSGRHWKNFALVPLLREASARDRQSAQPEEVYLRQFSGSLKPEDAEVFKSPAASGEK

Molecule | pain behavioral response threshold (Von Frey), after vs before administration [1] | pain behavioral response threshold (Von Frey), after vs before administration ([2]; 2 mg/kg I.P.) | pain behavioral response (licking, biting) after formalin ([3]; 4 mg/kg I.P. one hour before 2% formalin) | TRPV1 inhibitory activity / inhibition rate (screening) [4] | pain behavioral response threshold (Von Frey), after vs before administration [5] | pain behavioral response (licking, biting) after capsaicin [6] | inhibition at 0.001 µM [4, 7] | inhibition at 0.005 µM [4, 7] | inhibition at 0.01 µM ([4]; CHO-K1, peptide at 10 nM, read-out: hTRPV1 activity inhibited compared to the control group) | inhibition at 0.05 µM ([4]; CHO-K1, peptide at 50 nM, read-out: hTRPV1 activity inhibited compared to the control group) | inhibition at 0.1 µM [4, 7] | inhibition at 0.5 µM ([4]; CHO-K1, peptide at 500 nM, read-out: hTRPV1 activity inhibited compared to the control group) | influx of calcium into TRPV1 channel (ΔF/F) [4] | inhibition at 0.0005 µM ([4]; CHO-K1, peptide at 0.5 nM, read-out: hTRPV1 activity inhibited compared to the control group) | pain behavioral response threshold (Von Frey), after vs before administration ([2]; 4 mg/kg I.P.) | pain behavioral response (licking, biting) after formalin ([3]; 8 mg/kg I.P. one hour before 2% formalin)
YGQCYMYMQKW [SEQ ID NO: 12] | the pain behavioral response threshold increased after the administration compared to before the administration | the pain behavioral response threshold increased after the administration compared to before the administration | significant decrease of the pain behavioral response in the 2nd phase | high inhibition rate of TRPV1 | the pain behavioral response threshold increased after the administration compared to before the administration | – | – | – | – | – | – | – | – | – | – | –
C[C@H](NC(=O)[C@H](CCCCN)NC(=O)[C@@H](N)Cc1ccc(O)cc1)C(=O)N[C@@H](CC(N)=O)C(=O)N[C@@H](Cc1ccc(O)cc1)C(=O)N[C@@H](CS)C(=O)N[C@@H](CO)C(=O)NCC(=O)N[C@@H](CCC(N)=O)C(=O)N[C@@H](CS)C(=O)N[C@@H](Cc1ccc(O)cc1)C(=O)O [SEQ ID NO: 5, YKANYCSGQCY] (H-YKANYCSGQCY-OH; N-terminus and C-terminus assumed) | – | – | – | high inhibition rate of TRPV1 | – | significant decrease of the pain behavioral response; also recorded: inhibited the pain caused by the peripheral and central sensitization | ~20% | 53% | 75% | 79% | 77% | 95% | the influx of calcium was significantly reduced | – | – | –
SGQCYMFMQKY [SEQ ID NO: 6, SGQCYMFMQKY] | – | – | – | high inhibition rate of TRPV1 | – | significant decrease of the pain behavioral response; also recorded: inhibited the pain caused by the peripheral and central sensitization | 16% | 51% | – | – | 70% | – | the influx of calcium was significantly reduced | ~9% | – | –
YGQCYMWMQKW [SEQ ID NO: 11] | the pain behavioral response threshold increased after the administration compared to before the administration | – | – | high inhibition rate of TRPV1 | the pain behavioral response threshold increased after the administration compared to before the administration | significant decrease of the pain behavioral response; also recorded: inhibited the pain caused by the peripheral and central sensitization | – | – | – | – | – | – | – | – | the pain behavioral response threshold increased after the administration compared to before the administration | significant decrease of the pain behavioral response in the 2nd phase
AGQCYMFMQKY [SEQ ID NO: 9] | – | – | – | high inhibition rate of TRPV1 | – | inhibited the pain caused by the peripheral and central sensitization | – | – | – | – | – | – | – | – | – | –
